# Source: PMC7160832, “Phosphonium Ionic Liquid-Infused Poly(vinyl chloride) Surfaces Possessing Potent Antifouling Properties” (ACS Omega, 2020)
# How the values were obtained:
# [1] = tested on: S. aureus (ATCC 6538); test: MIC and MBC by standardized broth dilution; type: cell-based, Staphylococcus aureus; conditions: for MBC: 99.9% killing; for MBC / MIC: >1000 = beyond tested concentration range; for MIC: 24 h, MHB
# Experimental: (§1) S. aureus (ATCC 6538) and P. aeruginosa (PA01) were maintained on cryopreservative beads (Microbank) at −80 °C and cultivated in 100 mL of MHB at 37 °C when needed. Overnight broth was centrifuged (3000 rpm, 12 min) and resuspended in PBS to achieve a final inoculum density of approximately 1 × 10^8 cfu mL^–1.
# (§2) The microbiological performance of the ionic liquids was assessed using MHB inoculated with S. aureus or P. aeruginosa according to a standardized broth dilution method.[25] A stock solution of 0.2% w/v of ionic liquid was freshly prepared in sterile MHB by stirring at 37 °C until dissolved and then filtered using a sterile 0.22 μm membrane. Serial twofold dilutions were prepared to provide a concentration range of […] to 0.1% w/v. Inoculum was diluted in MHB to produce a final inoculum density of 1 × 10^6 cfu mL^–1, verified by viable count. The inoculum (100 μL) was added to an equal volume of ionic liquid and incubated for 24 h (37 °C, 100 rpm). Positive (100 μL ofMHB/100 μL of inoculum) and negative controls (200 μL of MHB) were included in each assay. A minimum of five replicates of each dilution and controls were included.
# (§3) Determination of the MIC was taken as the lowest concentration that produced no visible growth after 24 h incubation.
# [2] = tested on: P. aeruginosa (PA01); test: MIC and MBC by standardized broth dilution; type: cell-based, Pseudomonas aeruginosa; conditions: for MBC: 99.9% killing; for MBC / MIC: >1000 = beyond tested concentration range; for MIC: 24 h, MHB
# Experimental: as §1, §2, §3
# [3] = tested on: equine erythrocytes; test: Hemolysis assay of PILs; type: cell-based; conditions: for hemolytic activity (in words): concentrations up to 25 μg mL^–1, equine erythrocytes; for hemolysis: 1 h, 37 °C
# Experimental: To assess the potential of phosphonium-AOT ionic liquids to illicit a hemolytic effect, ionic liquids were assessed for the ability to induce hemolysis of equine erythrocytes according to a previous method.[51] Briefly, 10 mL of fresh defribrinated equine blood was rinsed three times with an equal volume of PBS by centrifugation at 900g for 15 min. Erythrocytes were resuspended in PBS to a concentration of 4% (v/v). Erythrocyte suspension (100 μL) was added to each well of a 96-well microtiter plate and exposed to varying concentrations of ionic liquid for 1 h at 37 °C in an orbital incubator. Exposed solutions were subsequently centrifuged at 1000g for 15 min, and 100 μL was transferred to a fresh 96-well microtiter plate and spectrophotometrically read at 414 nm to determine hemoglobin release. Hexadecyltrimethylammonium bromide (8 mM) was used as a positive control (100% hemolysis) and PBS as a negative control (0% hemolysis). Samples were run in quadruplicate, and percentage hemolysis was calculated as follows [drawing 1]
# [4] = set-up: method as in PMID 29518336; conditions: cited from earlier work
# [5] = set-up: method as in earlier work; conditions: ref 39 (Kruszewska et al.); cited from earlier work
# [6] = tested on: P. aeruginosa; set-up: method as in PMID 17655912; conditions: 10^6 cfu mL^–1 P. aeruginosa inoculum, within 6 h, concentrations as low as 0.08 mg/L; cited from earlier work
# [7] = 5 μg mL^–1, equine erythrocytes
# [8] = 25 μg mL^–1, equine erythrocytes
compound,measurement,setting,value
"CCCCC(CC)COC(=O)CC(C(=O)OCC(CC)CCCC)S(=O)(=O)[O-].CCCCCCCCCCCCCC[P+](CCCCCC)(CCCCCC)CCCCCC [[P666 14][AOT], Trihexyl(tetradecyl)phosphonium docusate]",MBC,[1],1000 μg mL^–1
same,MIC,[1],500 μg mL^–1
same,MBC,[2]; P. aeruginosa,>1000 μg mL^–1
same,MIC,[2]; P. aeruginosa,>1000 μg mL^–1
same,hemolytic activity (in words),[3],not hemolytic
"CCCCC(CC)COC(=O)CC(C(=O)OCC(CC)CCCC)S(=O)(=O)[O-].CCCC[P+](CCO)(CCCC)CCCC (stereo not shown) [[P444 2OH][AOT], tributyl(hydroxyethyl)phosphonium docusate]",MBC,[1],250 μg mL^–1
same,MIC,[1],62.5 μg mL^–1
same,MBC,[2]; P. aeruginosa,>1000 μg mL^–1
same,MIC,[2]; P. aeruginosa,>1000 μg mL^–1
same,hemolysis,[3]; [7],< 10%
same,hemolysis,[3]; [8],99.39%
"CCCCCCCCCCCCCC[P+](CCCCCC)(CCCCCC)CCCCCC.O=S(=O)([N-]S(=O)(=O)C(F)(F)F)C(F)(F)F [[P666 14][Tf2N], Trihexyl(tetradecyl)phosphonium bis(trifluoromethylsulfonyl)imide]",MBC,[1],>1000 μg mL^–1
same,MIC,[1],>1000 μg mL^–1
same,antibacterial activity / growth inhibition (in words),[1]; within the tested concentration range,no antibacterial activity
same,MBC,[2]; P. aeruginosa,>1000 μg mL^–1
same,MIC,[2]; P. aeruginosa,>1000 μg mL^–1
same,antibacterial activity / growth inhibition (in words),"[2]; P. aeruginosa, within the tested concentration range",no antimicrobial activity
same,aqueous solubility,[4],260 µM
CCCCC(CC)COC(=O)CC(C(=O)OCC(CC)CCCC)S(=O)(=O)O (stereo not shown) [sodium docusate],MIC,[5],3000 μg mL^–1
"CCCCC(CC)COC(=O)CC(C(=O)OCC(CC)CCCC)S(=O)(=O)[O-].CCCCCCCCCCCCCC[P+](CCCCCCCC)(CCCCCCCC)CCCCCCCC [[P888 14][AOT], trioctyl(tetradecyl)phosphonium docusate]",MIC potency relative to the other [AOT]-containing ionic liquids,[1],16–128 fold
same,MBC,[1],7.81 μg mL^–1
same,MIC,[1],3.91 μg mL^–1
same,rise of MBC against P. aeruginosa relative to S. aureus,[2],128 fold
same,rise of MIC against P. aeruginosa relative to S. aureus,[2],64 fold
same,MBC,[2]; P. aeruginosa,1000 μg mL^–1
same,MIC,[2]; P. aeruginosa,250 μg mL^–1
same,hemolysis,[3]; [7],< 10%
same,hemolysis,[3]; [8],102.3%
Silver ions,eradication of inoculum,[6],≤ 99.999%
"CCCCC(CC)COC(=O)CC(C(=O)OCC(CC)CCCC)S(=O)(=O)[O-].CCCCCCCCCCCCCCCCCC[P+](C)(CCCCCCCCCCCCCCCCCC)CCCCCCCCCCCCCCCCCC [[P181818 1][AOT], trioctadecyl(methyl)phosphonium docusate]",MBC,[1],500 μg mL^–1
same,MIC,[1],250 μg mL^–1
same,MBC,[2]; P. aeruginosa,>1000 μg mL^–1
same,MIC,[2]; P. aeruginosa,>1000 μg mL^–1
same,hemolytic activity (in words),[3],not hemolytic
